Results from patent US20240390369A1, “METHODS FOR DETERMINING RESPONSIVENESS TO TYK2 INHIBITORS” (Bristol-Myers Squibb Company, priority 2021, published 2024).

System: patients with psoriatic arthritis
Assay: Phase 2 trial in psoriatic arthritis: ACR20 response at week 16
Format: in vivo, human
Settings: for Odds Ratio for ACR20 response / Interaction Term for ACR20 response (ratio of odds ratios): week 16
Method: In a double-blind Phase 2 trial, 203 patients with psoriatic arthritis were randomized into three groups: deucravacitinib 6 mg once daily (N=70), deucravacitinib 12 mg once daily (N=67), or placebo (N=66). All subjects had active psoriatic arthritis according to the Classification Criteria for Psoriatic Arthritis (CASPAR); for active disease, these criteria required ≥3 tender joint count, ≥3 swollen joint count, and a C-reactive protein level above 3 mg/L. Other inclusion criteria included the following: presence of at least one plaque psoriasis lesion, and prior treatment failure with a non-biologic disease modifying anti-rheumatic drug, a non-steroidal anti-inflammatory drug, or a steroid. With respect to treatment history, approximately 70% of subjects had not received prior treatment with a biologic and were biologic naïve, while up to 30% of subjects had failed or had been intolerant to one TNF-inhibitor (TNF=Tumor necrosis factor, also known as TNFα). Randomization was stratified by prior TNF-inhibitor use (experienced/naïve) and body weight (<90 kg and ≥90 kg).
Clinical measures included the Psoriasis […] (PASI) score for skin psoriasis, American College of Rheumatology 20 (ACR20) response, Psoriatic Arthritis Disease Activity Score (PASDAS), Health Assessment Questionnaire-Disability Index (HAQ-DI), and Disease Activity Score 28 CRP (DAS28). To evaluate the predictive value of different protein measurements for the clinical response to deucravacitinib, baseline protein concentrations for responders and non-responders, as defined by ACR20 or PASI75 at week 16, were compared for each arm (placebo, 6 mg deucravacitinib once-daily, and 12 mg deucravacitinib once-daily).
Boxplots for baseline protein level by response were generated with a horizontal line indicating the median protein level at baseline. For each treatment arm, a two-sample t-test was performed to test whether mean baseline serum protein level was different in responders versus non-responders. A Wilcoxon rank sum test (Mann-Whitney U test) was also performed to evaluate the difference in median serum protein level between responders and non-responders. Further, barplots of ACR20 and PASI75 response rate at week 16 for each treatment arm were generated for all subjects (protein level high and protein level low subjects, dichotomized according to median baseline level). Line plots of ACR20 and PASI75 response rate over time for each treatment arm were generated for protein level high and protein level low groups. Logistic regression models were also fit to evaluate associations between baseline protein levels and clinical outcome.
For certain analyses described herein, patients were dichotomized by median values (e.g., of the proteins listed above or other measures) into “high” and “low” groups, such that the high group had values above the median and the low group had values less than or equal to the median.
In addition, logistic regression models were fit for response measures ACR20 and PASI75, to generate the odds ratio of each of the deucravacitinib treatment arms versus placebo, in BD2-high and BD2-low groups. The following logistic regression models were used: • For ACR20 response status: ACR20 (Y/N)=treatment arm+BD2 group+treatment arm*BD2 group+TNF-inhibitor use+baseline weight (continuous). • For PASI75 response status: PASI75 (Y/N)=treatment arm+BD2 group+treatment arm*BD2 group+TNF-inhibitor use+baseline weight (continuous). […] FIGS. 26-31 are forest plots summarizing the logistic regression results of these models (for BD2 and other biomarkers described herein); each “N,” for “Placebo” and “Deucrava,” represents the number of responders in that group. […]

[2H]C([2H])([2H])NC(=O)c1nnc(NC(=O)C2CC2)cc1Nc1cccc(-c2ncn(C)n2)c1OC [deucravacitinib, 6-(cyclopropanecarboxamido)-4-((2-methoxy-3-(1-methyl-1H-1,2,4-triazol-3-yl)phenyl)amino)-N-(methyl-d3)pyridazine-3-carboxamide]
Odds Ratio for ACR20 response (BD2 high (baseline above median 9,265 ng/L), 6 mg QD vs placebo): 4.54 | Odds Ratio for ACR20 response (BD2 high (baseline above median 9,265 ng/L), 12 mg QD vs placebo): 7.33 | Odds Ratio for ACR20 response (BD2 high, treatment arms combined vs placebo): 5.645 | Odds Ratio for ACR20 response (BD2 low, 6 mg QD vs placebo): 1.44 | Odds Ratio for ACR20 response (BD2 low, 12 mg QD vs placebo): 2.15 | Odds Ratio for ACR20 response (BD2 low, treatment arms combined vs placebo): 1.767 | Odds Ratio, ACR20 response status (CRP high, 6 mg QD vs placebo): 2.167 | Odds Ratio, ACR20 response status (CRP high, 12 mg QD vs placebo): 5.140 | Odds Ratio, ACR20 response status (CRP high, treatment arms combined vs placebo): 3.215 | Odds Ratio, ACR20 response status (CRP low, 6 mg QD vs placebo): 2.756 | Odds Ratio, ACR20 response status (CRP low, 12 mg QD vs placebo): 2.676 | Odds Ratio, ACR20 response status (CRP low, treatment arms combined vs placebo): 2.715 | Odds Ratio, ACR20 response status (CRP-high, 6 mg QD vs placebo, adjusted for baseline DAS28): 2.168 | Odds Ratio, ACR20 response status (CRP-high, 12 mg QD vs placebo, adjusted for baseline DAS28): 5.154 | Odds Ratio, ACR20 response status (CRP-low, 6 mg QD vs placebo, adjusted for baseline DAS28): 2.752 | Odds Ratio, ACR20 response status (CRP-low, 12 mg QD vs placebo, adjusted for baseline DAS28): 2.670 | Odds Ratio for ACR20 response (IL-17A high (baseline above median 0.575 ng/L), 6 mg QD vs placebo): 4.30 | Odds Ratio for ACR20 response (IL-17A high (baseline above median 0.575 ng/L), 12 mg QD vs placebo): 5.95 | ACR20 response rate at week 16 (IL-17A high group, 6 mg QD and 12 mg QD vs placebo (FIG. 22)): higher in both 6 mg QD and 12 mg QD treatment arms compared to placebo in the IL-17-high group | Odds Ratio for ACR20 response (IL-17A high, treatment arms combined vs placebo): 4.990 | Odds Ratio for ACR20 response (IL-17A low, 6 mg QD vs placebo): 1.39 | Odds Ratio for ACR20 response (IL-17A low, 12 mg QD vs placebo): 2.14 | Odds Ratio for ACR20 response (IL-17A low, treatment arms combined vs placebo): 1.723 | ACR20 response rate at week 16 (IL-19-high versus IL-19-low group (FIG. 15)): a much more pronounced treatment effect (indicating a dose response effect of deucravacitinib) was observed in the IL-19-high group than in the IL-19-low group | Odds Ratio for ACR20 response (IL-19 high (baseline above median 36 ng/L), 6 mg QD vs placebo): 4.68 | Odds Ratio for ACR20 response (IL-19 high (baseline above median 36 ng/L), 12 mg QD vs placebo): 11.44 | Odds Ratio for ACR20 response (IL-19 high, treatment arms combined vs placebo): 6.679 | Odds Ratio for ACR20 response (IL-19 low, 6 mg QD vs placebo): 1.41 | Odds Ratio for ACR20 response (IL-19 low, 12 mg QD vs placebo): 1.56 | Odds Ratio for ACR20 response (IL-19 low, treatment arms combined vs placebo): 1.487 | Interaction Term for ACR20 response (ratio of odds ratios) (adjusted for baseline DAS28, 6 mg QD vs placebo: BD2-high versus BD2-low): 3.06 | Interaction Term for ACR20 response (ratio of odds ratios) (adjusted for baseline DAS28, 6 mg QD vs placebo: IL-17A-high versus IL-17A-low): 3.08 | Interaction Term for ACR20 response (ratio of odds ratios) (adjusted for baseline DAS28, 6 mg QD vs placebo: IL-19-high versus IL-19-low): 3.32 | Interaction Term for ACR20 response (ratio of odds ratios) (adjusted for baseline DAS28, 12 mg QD vs placebo: BD2-high versus BD2-low): 3.42 | Interaction Term for ACR20 response (ratio of odds ratios) (adjusted for baseline DAS28, 12 mg QD vs placebo: IL-17A-high versus IL-17A-low): 2.75 | Odds Ratio for ACR20 response (adjusted for baseline DAS28, All patients, 12 mg QD vs placebo): 3.62 | Odds Ratio for ACR20 response (adjusted for baseline DAS28, BD2-high, 6 mg QD vs placebo): 4.42 | Odds Ratio for ACR20 response (adjusted for baseline DAS28, BD2-low, 6 mg QD vs placebo): 1.44 | Odds Ratio for ACR20 response (adjusted for baseline DAS28, BD2-low, 12 mg QD vs placebo): 2.14 | Odds Ratio for ACR20 response (adjusted for baseline DAS28, IL-17A-high, 6 mg QD vs placebo): 4.27 | Odds Ratio for ACR20 response (adjusted for baseline DAS28, IL-17A-high, 12 mg QD vs placebo): 5.92 | Odds Ratio for ACR20 response (adjusted for baseline DAS28, IL-17A-low, 6 mg QD vs placebo): 1.39 | Odds Ratio for ACR20 response (adjusted for baseline DAS28, IL-19-high, 6 mg QD vs placebo): 4.66 | Odds Ratio for ACR20 response (adjusted for baseline DAS28, IL-19-high, 12 mg QD vs placebo): 11.47 | Odds Ratio for ACR20 response (adjusted for baseline DAS28, IL-19-low, 6 mg QD vs placebo): 1.40 | Odds Ratio for ACR20 response (adjusted for baseline DAS28, IL-19-low, 12 mg QD vs placebo): 1.56 | Interaction Term for ACR20 response (ratio of odds ratios) (treatment arms combined vs placebo: BD2 high versus BD2 low): 3.195 | Interaction Term: treatment arm*CRP group, ACR20 (treatment arms combined vs placebo: CRP high versus CRP low): 1.184 | Interaction Term for ACR20 response (ratio of odds ratios) (treatment arms combined vs placebo: IL-17A high versus IL-17A low): 2.886 | Interaction Term for ACR20 response (ratio of odds ratios) (treatment arms combined vs placebo: IL-19 high versus IL-19 low): 4.491
